Assay results as given in publication PMC9401600 (Chemmedchem, 2022).

Key:
G9a = target: T1, G9a (Homo sapiens, UniProt Q96KQ7); experiment: G9a Homogeneous Assay Kit (AlphaLISA) G9a inhibition; format: biochemical; settings: for IC50: AlphaLISA, 100 μM SAM and peptide substrate
T1 construct: purchased BPS Bioscience 52051
T1 sequence (Q96KQ7 1-1210): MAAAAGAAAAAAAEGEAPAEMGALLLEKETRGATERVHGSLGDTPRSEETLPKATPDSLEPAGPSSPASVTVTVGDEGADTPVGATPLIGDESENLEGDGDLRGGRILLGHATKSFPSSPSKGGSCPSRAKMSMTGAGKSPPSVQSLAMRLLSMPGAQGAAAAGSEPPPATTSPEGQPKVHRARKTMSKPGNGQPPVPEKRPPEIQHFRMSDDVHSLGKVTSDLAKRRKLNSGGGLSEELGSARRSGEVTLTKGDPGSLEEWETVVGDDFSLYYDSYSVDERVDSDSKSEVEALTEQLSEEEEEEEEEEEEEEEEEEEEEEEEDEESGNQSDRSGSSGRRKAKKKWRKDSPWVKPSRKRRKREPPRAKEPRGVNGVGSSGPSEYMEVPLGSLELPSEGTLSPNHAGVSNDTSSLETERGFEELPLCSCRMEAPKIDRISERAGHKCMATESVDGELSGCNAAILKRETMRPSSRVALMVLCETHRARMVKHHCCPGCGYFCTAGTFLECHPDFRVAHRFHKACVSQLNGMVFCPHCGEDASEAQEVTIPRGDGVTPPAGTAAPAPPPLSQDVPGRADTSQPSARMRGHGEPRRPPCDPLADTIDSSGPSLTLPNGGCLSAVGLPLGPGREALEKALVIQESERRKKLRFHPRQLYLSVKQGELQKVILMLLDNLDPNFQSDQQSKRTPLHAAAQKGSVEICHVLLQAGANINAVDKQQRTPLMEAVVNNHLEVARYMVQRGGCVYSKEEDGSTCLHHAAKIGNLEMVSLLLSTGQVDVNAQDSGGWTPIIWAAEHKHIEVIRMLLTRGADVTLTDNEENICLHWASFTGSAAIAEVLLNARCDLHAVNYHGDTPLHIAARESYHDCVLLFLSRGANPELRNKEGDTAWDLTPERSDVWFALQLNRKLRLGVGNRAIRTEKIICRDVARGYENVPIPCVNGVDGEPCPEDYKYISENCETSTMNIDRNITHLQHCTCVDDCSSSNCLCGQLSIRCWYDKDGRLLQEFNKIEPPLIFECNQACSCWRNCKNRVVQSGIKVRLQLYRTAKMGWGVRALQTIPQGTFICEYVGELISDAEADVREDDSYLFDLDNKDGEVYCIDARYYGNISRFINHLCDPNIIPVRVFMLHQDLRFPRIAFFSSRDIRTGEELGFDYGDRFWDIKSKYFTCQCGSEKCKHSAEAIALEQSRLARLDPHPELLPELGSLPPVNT
Procedure: The percentages of G9a activity for the 10 selected molecules were determined at 100 μM S‐adenosylmethionine (SAM) and peptide substrate using AlphaLISA® technology. These percentages were used to calculate the IC50.
G9a inhibitors were serially diluted between 5 nM and 0.001 nM in 100 % DMSO (Sigma, St. Louis, USA). Then, respective concentrations were subsequently diluted in MilliQ purified water to reach a final concentration ranging between 50 and 0.001 μM in 1 % DMSO in well.
Briefly, a sample containing the G9a enzyme is incubated with the biotinylated substrate plus inhibitor solution for two hours. Next, acceptor beads and primary antibody is added, followed by donor beads. Finally, the Alpha‐counts were read using an AlphaScreen microplate reader. The experiment was run per triplicate. G9aactivity(%)=(C-Cb)/(Ct-Cb)x100
Ct=The chemiluminescence reading in the absence of the compound. The data set here is defined as 100 % activity in the absence of the compound.
Cb=The chemiluminescence reading in absence of enzyme. The data set here is defined as 0 % activity in the absence of the enzyme.
C=The chemiluminescence reading in the presence of the compound.
Data analysis was conducted using GraphPad Prism ver. 9 statistical software. The statistical outliers were identified with Grubb's test and excluded from the analysis. Group comparisons were carried out with a One‐way Analysis of variance (ANOVA), followed by the Dunnett post hoc test. In some cases, comparison between groups was also performed by unpaired t‐test or One‐way ANOVA, followed by Fisher's LSD post hoc test. For the calculation of IC50, non‐linear regressions were performed. […] Values are shown as the mean ± Standard error of the mean (SEM) of at least n=3. Statistical significance was considered when p values were <0.05.

C. elegans strain CL2006 = experiment: Locomotion assay (motor index); format: in vivo, Caenorhabditis elegans; settings: CL2006 worms, 0.001-1 μM, chronic treatment, compared with UNC0638
Procedure: One of the best‐characterized transgenic AD strains in C. elegans is the CL2006 strain, which contains the Punc‐54::Aβ1–42 transgene, showing a progressive adult‐onset paralysis. Then, to establish a dose‐response profile, the pharmacological impact of G9a inhibition was evaluated in a locomotion assay with this C. elegans strain. We performed a motility assay where animals were placed in the center of a seeded plate and allowed to explore the environment freely. […] N2 (WT), and CL2006 strain were treated with dimethyl sulfoxide (DMSO) 1 %, used as a vehicle, which should not cause a relevant locomotor defective phenotype. […] The motor index for each condition was calculated using the motor performance of Bristol (N2) (WT, 100 %) and the transgenic AD strain (CL2006, 0 %) animals as reference.
Locomotion assay of G9a inhibitors was assessed to obtain dose‐response profile, evaluating the impact of the pharmacology treatment in motor dysfunction presented by the transgenic strains CL2006. Nematodes were synchronized by alkaline hypochlorite treatment, and drug assay was performed as described above, except for the OP50 bacteria OD595 adjusted to 0.9, and the duration of the treatment was 5 days. N2 (WT), and the transgenic strain CL2006 were treated in liquid media for 4 days at 20 °C and 180 rpm, starting at the L1 stage. On day 5 of age, worms were transferred from the 96‐well plates onto an unseeded NGM plate for 45 minutes before starting the trial, allowing the plates to dry and worms. Locomotion assays were performed in 30 mm NGM plates, in which the whole surface of the plate was covered by OP50. 5 to 10 adult nematodes were placed in the center of a circle (with 1 cm of diameter) in the seeded 30 mm NGM plates. After 1 min, the number of animals remaining inside the circle was scored as a locomotor defect. Motor behavior assays were run in triplicates (n=3), with a total of at least 100 animals tested per compound concentration. Motor index establishes a score where treated animals showing the same motor defect as CL2006 have an index of 0 %. […] All the results shown in the figures are calculated using the following formula: Motorindex(%)=(LDCL2006vehicle-LDCL2006drug)/(LDCL2006vehicle-LDWTvehicle)×100 LD=locomotiondefective

PAMPA‐BBB assay = format: in vitro ADME; settings: pig; PAMPA‐BBB, PBS:EtOH (70 : 30); read-out: Permeability (Pe) experimental value
Procedure: To evaluate the brain penetration of the different compounds, a parallel artificial membrane permeation assay for BBB was used, following the method described by Di et al..[33] The in vitro Pe of fourteen commercial drugs through lipid extract of porcine brain membrane together with the test compounds were determined. Commercial drugs and assayed compounds were tested using a mixture of PBS:EtOH (70 : 30).

| Compound | remaining activity at 0.0001 µM (G9a; first data set of Table S2) [%] | remaining activity at 0.0001 µM (G9a; second data set of Table S2) [%] | remaining activity at 0.0001 µM (G9a; third data set of Table S2) [%] | remaining activity at 0.001 µM (G9a; first data set of Table S2) [%] | remaining activity at 0.001 µM (G9a; second data set of Table S2) [%] | remaining activity at 0.001 µM (G9a; third data set of Table S2) [%] | remaining activity at 0.01 µM (G9a; first data set of Table S2) [%] | remaining activity at 0.01 µM (G9a; second data set of Table S2) [%] | remaining activity at 0.01 µM (G9a; third data set of Table S2) [%] | remaining activity at 0.1 µM (G9a; first data set of Table S2) [%] | remaining activity at 0.1 µM (G9a; second data set of Table S2) [%] | remaining activity at 0.1 µM (G9a; third data set of Table S2) [%] | remaining activity at 1 µM (G9a; first data set of Table S2) [%] | remaining activity at 1 µM (G9a; second data set of Table S2) [%] | remaining activity at 1 µM (G9a; third data set of Table S2) [%] | remaining activity at 10 µM (G9a; first data set of Table S2) [%] | remaining activity at 10 µM (G9a; second data set of Table S2) [%] | remaining activity at 10 µM (G9a; third data set of Table S2) [%] | remaining activity at 50 µM (G9a; first data set of Table S2) [%] | remaining activity at 50 µM (G9a; second data set of Table S2) [%] | other results |
| --- | --- | --- | --- | --- | --- | --- | --- | --- | --- | --- | --- | --- | --- | --- | --- | --- | --- | --- | --- | --- | --- |
| CC(C)c1nccn1CCCNCc1cc(CN2CCCC2)cs1 [C] | 32.8 | 32.7 | 32.8 | 22.2 | 23.9 | 23.1 | 15.1 | 19.5 | 17.3 | 12 | 12.6 | 12.3 | 11.5 | 12.4 | 12 | 10.9 | 11.3 | 11.1 | 10.7 | 10.9 | remaining activity at 50 µM (G9a; third data set of Table S2): 10.8%; IC50 (G9a): 1.7 nM; motor index dose‐response profile (in words) (C. elegans strain CL2006): ameliorating the paralysis presented by CL2006 |
| CCc1nccn1CCC(=O)Nc1cccc(NC(=O)CN(C)C)c1 [G] | 29.6 | 33.7 | 31.7 | 26 | 28.7 | 27.4 | 17.6 | 16.1 | 16.8 | 11.4 | 12.3 | 11.9 | 8.7 | 10.3 | 9.5 | 8.5 | 9.1 | 8.8 | 7.7 | 9.1 | remaining activity at 50 µM (G9a; third data set of Table S2): 8.4%; IC50 (G9a): 5.8 nM; motor index dose‐response profile (in words) (C. elegans strain CL2006): motor index decreased progressively as the dose decreased |
| CN1C(C(=O)Nc2ccccn2)=C(O)c2ccccc2S1(=O)=O [Piroxicam, reference compound] |  |  |  |  |  |  |  |  |  |  |  |  |  |  |  |  |  |  |  |  | Papp (PAMPA‐BBB assay): 2 ± 0.08 ×10⁻⁶ cm/s |
| CC(=O)[C@H]1CC[C@H]2[C@@H]3CCC4=CC(=O)CC[C@]4(C)[C@H]3CC[C@]12C [Progesterone, reference compound] |  |  |  |  |  |  |  |  |  |  |  |  |  |  |  |  |  |  |  |  | Papp (PAMPA‐BBB assay): 14.7 ± 0.3 ×10⁻⁶ cm/s |

The next lines start with results.

| remaining activity at 0.0001 µM (G9a; first data set of Table S2) [%] | remaining activity at 0.0001 µM (G9a; second data set of Table S2) [%] | remaining activity at 0.0001 µM (G9a; third data set of Table S2) [%] | remaining activity at 0.001 µM (G9a; first data set of Table S2) [%] | remaining activity at 0.001 µM (G9a; second data set of Table S2) [%] | remaining activity at 0.001 µM (G9a; third data set of Table S2) [%] | remaining activity at 0.01 µM (G9a; first data set of Table S2) [%] | remaining activity at 0.01 µM (G9a; second data set of Table S2) [%] | remaining activity at 0.01 µM (G9a; third data set of Table S2) [%] | remaining activity at 0.1 µM (G9a; first data set of Table S2) [%] | remaining activity at 0.1 µM (G9a; second data set of Table S2) [%] | remaining activity at 0.1 µM (G9a; third data set of Table S2) [%] | remaining activity at 1 µM (G9a; first data set of Table S2) [%] | remaining activity at 1 µM (G9a; second data set of Table S2) [%] | remaining activity at 1 µM (G9a; third data set of Table S2) [%] | remaining activity at 10 µM (G9a; first data set of Table S2) [%] | remaining activity at 10 µM (G9a; second data set of Table S2) [%] | remaining activity at 10 µM (G9a; third data set of Table S2) [%] | remaining activity at 50 µM (G9a; first data set of Table S2) [%] | remaining activity at 50 µM (G9a; second data set of Table S2) [%] | Compound | other results |
| --- | --- | --- | --- | --- | --- | --- | --- | --- | --- | --- | --- | --- | --- | --- | --- | --- | --- | --- | --- | --- | --- |
| 31 | 32.1 | 31.6 | 27.8 | 30.6 | 29.2 | 22.9 | 30.7 | 26.8 | 22.8 | 22.7 | 22.7 | 14.8 | 15.1 | 15 | 10 | 11.3 | 10.6 | -0.4 | 0.9 | Cn1ccnc1-c1ccc(NCC(c2cccnc2)N2CCOCC2)nn1 (centres unmarked) [A] | remaining activity at 50 µM (G9a; third data set of Table S2): 0.3% |
| 9.3 | 10.8 | 10 | 8.7 | 11.6 | 10.1 | 3.5 | 7.3 | 5.4 | 2.1 | 5.3 | 3.7 | 1.2 | 3.8 | 2.5 | 0.9 | 1.6 | 1.2 | 0.2 | 0.6 | c1ccc(OCCn2ccnc2)c(CN2CCN(c3ccncc3)CC2)c1 [Compound B] | remaining activity at 50 µM (G9a; third data set of Table S2): 0.4%; IC50 (G9a): 9.4 nM; motor index dose‐response profile (in words) (C. elegans strain CL2006): did not show an improved performance against the motor indexes of the control UNC0638 |
| 33 | 33.8 | 33.4 | 29.3 | 28.4 | 28.8 | 23 | 21.5 | 22.2 | 15.8 | 15.9 | 15.9 | 11.5 | 14.2 | 12.8 | 8.3 | 10.3 | 9.3 | 9.9 | 12.1 | Fc1ccccc1CN1CCC(CN(Cc2ccccn2)CC2CCCO2)CC1 (centres unmarked) [Compound D] | remaining activity at 50 µM (G9a; third data set of Table S2): 11%; IC50 (G9a): 10.5 nM |
| 30.9 | 29.3 | 30.1 | 24 | 22.5 | 23.2 | 13.5 | 12.8 | 13.2 | 8.2 | 9.3 | 8.7 | 6.8 | 7.3 | 7.1 | 6.6 | 5.7 | 6.2 | 5.9 | 4.8 | CC(C)c1nccn1C(C)C(=O)Nc1ccc(NC(=O)CN2CCCCC2)cc1 (centres unmarked) [I] | remaining activity at 50 µM (G9a; third data set of Table S2): 5.3%; IC50 (G9a): 3.9 nM; motor index dose‐response profile (in words) (C. elegans strain CL2006): lowest motor index in the maximum and minimum dose tested |
